The values below come from patent publication US9289468B2, “Fusion protein comprising circularly permuted form of trail/Apo2L, coding gene and use thereof” (Beijing Sunbio Biotech Co. Ltd., priority 2011, dated 2016).

The experiment concerns human multiple myeloma cell line U266. Description: Combination with melphalan, cell survival (ATPlite). The experiment is classed as cell-based. As to the method: FIG. 9. […] U266 cells are insensitive to CPT. At the concentration of 1 μg/ml, NCPT-1.M1 alone has a mild killing effect on U266 (<20%), but with the presence of melphalan (12.5˜50 μg/ml), both of them can cause enhanced killing effect. The cell viability was assayed with ATPlite luminescent system (PerkinElmer), the data as shown in this figure are all represented as the mean±standard deviation, n=4, #P<0.05, ##P<0.01 vs. melphalan group; *P<0.05 vs. NCPT-1.M1 group.
(ATP-based viability assays read luminescence as a measure of living cells.)

For the molecule `N[C@@H](Cc1ccc(N(CCCl)CCCl)cc1)C(=O)O` [melphalan, reference compound], where the note is “melphalan 12.5˜50 μg/ml, 48 h, U266B1”, the “cell survival rate, melphalan alone” value is listed as 11.9˜100.9%.

B1: CPT: recombinant human circularly permuted TRAIL: amino acids 135-281, a linker, amino acids 122-135; SEQ ID NO: 1 (protein)
chain: TLSSPNSKNEKALGRKINSWESSRSGHSFLSNLHLRNGELVIHEKGFYYIYSQTYFRFQEEIKENTKNDKQMVQYIYKYTSYPDPILLMKSARNSCWSKDAEYGLYSIYQGGIFELKENDRIFVSVTNEHLIDMDHEASFFGAFLVGGGGGGVAAHITGTRGRSNT
modifications: CPT polypeptide sequence
For the molecule B1, the “sensitivity of the cell line” value (U266 / U266B1) is reported as “insensitive”.
